In patent US5312816A, “Method of combatting osteoporosis in mammalian subjects, utilizing organic boron compounds” (priority 1993, dated 1994):
pIC50: −log10 of the molar value. Counter-ions that a name gives are not always drawn. Like-named read-outs stand apart in the source and are kept apart here.

How the values were obtained:
[1] = test system: Cf1 male mice; test: Hot plate tail flick test; assay type: in vivo; settings: Table XIV; unit not given
[2] = test system: Elastase; test: Mouse macrophage elastase activity; assay type: cell-based; settings: 60 min incubation, read-out: Elastase IC50
[3] = target: T1, Porcine Pancreatic Elastase (Sus scrofa, UniProt P00772); test: Porcine pancreatic elastase activity in vitro; assay type: biochemical; settings: Table IX; commercial enzyme preparation
T1 construct: purchased; host or cells: porcine pancreas
From the text: (§1) 2. Elastase- N-succinyl-L-alanyl-L-alanine-p-nitroanilide, pH 8.0, p-nitro anilide 410 nm.

[4] = test system: Trypsin; test: Mouse hepatic trypsin activity; assay type: biochemical; settings: 60 min incubation
From the text: (§2) 1. Cf1 male mouse hepatic 10% homogenates in 0.25M sucrose+0.001MEDTA,pH 7.2.
1. Trypsin- N-benzoyl-L-arginine ethyl ester pH 8.0, hydrolytic product 253 nm.

[5] = target: Acid phosphatase; test: Mouse hepatic lysosomal acid phosphatase activity; assay type: biochemical; settings: mouse hepatic, 60 min incubation
From the text: as §2
(§3) Lysosomal Enzymes - free and total [triton X-100].
1. Acid phosphatase -beta glycerol-3-phosphate, pH 5.0, released IP 720 nm.
Acid phosphatase activity -

[6] = target: Elastase; test: Mouse hepatic elastase activity; assay type: biochemical; settings: Table VI, 60 min incubation
From the text: as §2, §1
Elastase activity - in vitro

[7] = target: T2, Cathepsin D (Mus musculus, UniProt P18242); test: Mouse macrophage cathepsin D activity; assay type: cell-based; settings: 60 min incubation
T2 construct: azocasein assay pH 5.0
From the text: (§4) 3. Mouse macrophages J774A.1 BALB/c
(§5) 2. Acid Cathepsin D -azocasein-pH 5.0, hydrolytic azo-peptide produce 366 nm.

[8] = test system: Acid phosphatase; test: Mouse macrophage acid phosphatase activity; assay type: cell-based; settings: 60 min incubation, read-out: Acid Phosphatase IC50
[9] = target: T3, Prostaglandin synthetase (Bos taurus, UniProt O62664); test: Prostaglandin synthetase (cyclooxygenase), purified beef seminal vesicle; assay type: biochemical; settings: Table IX; commercial enzyme preparation; read-out: Beef Prostaglandin Cyclooxygenase IC50
T3 construct: Prostaglandin synthetase purified beef seminal vesicle; from tissue
T3 sequence (O62664 25-600): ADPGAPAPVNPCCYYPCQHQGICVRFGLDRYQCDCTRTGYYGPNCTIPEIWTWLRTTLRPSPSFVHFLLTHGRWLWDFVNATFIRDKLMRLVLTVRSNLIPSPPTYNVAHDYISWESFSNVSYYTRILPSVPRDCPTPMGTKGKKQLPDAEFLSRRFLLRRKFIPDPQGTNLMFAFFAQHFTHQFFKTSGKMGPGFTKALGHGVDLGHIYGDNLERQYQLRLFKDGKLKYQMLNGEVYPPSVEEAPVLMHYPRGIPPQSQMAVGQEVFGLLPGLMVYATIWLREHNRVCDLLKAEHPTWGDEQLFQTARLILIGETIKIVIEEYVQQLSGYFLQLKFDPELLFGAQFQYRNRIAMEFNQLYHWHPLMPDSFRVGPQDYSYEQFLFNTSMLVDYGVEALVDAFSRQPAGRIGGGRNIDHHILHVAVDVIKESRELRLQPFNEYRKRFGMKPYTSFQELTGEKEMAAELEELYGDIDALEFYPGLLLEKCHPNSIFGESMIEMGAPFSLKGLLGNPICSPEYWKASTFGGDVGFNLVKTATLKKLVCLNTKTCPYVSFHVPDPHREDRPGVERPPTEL
From the text: (§6) Prostaglandin synthetase purified beef seminal vesicle ^3 H arachidonic acid (86.2 Ci/mmol), tlc separation.

[10] = test system: Cf1 male mice; test: Anti-inflammatory screen, Winter's test, 2% carrageenan hind foot; assay type: in vivo; settings: Table XIV; unit inferred; unit assumed
Description: Anti-inflammatory Screen- Cf1 - male mice-Winter's Test 2% carrageenan S.C. plantar surface of hind foot, drugs administered @8 or 10 mg/kg I.P. 2X
Winter, C.A., et al, Proc. Soc.

[11] = test system: Sprague Dawley Rats; test: Anti-inflammatory activity in Sprague Dawley rats; assay type: in vivo; settings: Table IV; 8 mg/kg I.P.
[12] = test system: Trypsin; test: Mouse macrophage trypsin (BAEE) activity; assay type: cell-based; settings: 60 min incubation, read-out: Trypsin BAEE IC50
[13] = target: Clostridium histolyticum Collagenase Type I; test: Commercial collagenase type I; assay type: biochemical; settings: Table IX; commercial enzyme preparation
From the text: (§7) 3. Collagenase I, Clostridium histolyticum, bone, skin, tendon, blood vessel, dentine, GI. substrate: rat collagen, N-[propionate-2-3-^3 H] propionylated measured as dpm released.

[14] = target: Commercial Collagenase; test: Commercial collagenase (type not stated); assay type: biochemical; settings: Table XVI; 60 min incubation
From the text: as §7
4. Collagenase II, Clostridium histolyticum, cartilage collagen.

[15] = target: T2, Cathepsin D; test: Mouse hepatic lysosomal cathepsin D activity; assay type: biochemical; settings: mouse hepatic, 60 min incubation, read-out: Cathepsin D IC50
From the text: as §2, §3, §5
Cathepsin azo casein activity -

[16] = target: T4, Pg. cyclooxygenase (Sus scrofa, UniProt A0A287ANF9); test: Porcine seminal vesicles Pg. cyclooxygenase; assay type: biochemical
T4 construct: Porcine Seminal; from tissue; the methods section prints beef seminal vesicle

[17] = target: Aryl sulphatase; test: Mouse hepatic lysosomal aryl sulphatase activity; assay type: biochemical; settings: 60 min incubation
From the text: as §2, §3
3. Aryl sulphatase- p-nitrocatechol sulfate, pH
5. 8 p-nitro-catechol product 510 nm.

[18] = test system: Cf1 male mice; test: Writhing reflex, 0.6% acetic acid; assay type: in vivo; settings: Table XIV; unit inferred; unit assumed
Description: Writhing reflex- Cf1 -male mice- 0.6% acetic acid I.P. drugs administered @20 mg/kg/ I.P. 20 min. later - the # of stretches/10 min.
Hendershot, L.C., et al, J.

[19] = test system: Aryl sulphatase; test: Mouse macrophage aryl sulphatase activity; assay type: cell-based; settings: 60 min incubation, read-out: Aryl Sulphatase IC50
[20] = test system: Prostaglandin cyclooxygenase; test: Mouse macrophage prostaglandin cyclooxygenase activity; assay type: cell-based; settings: 60 min incubation, read-out: Prostaglandin Cyclooxygenase IC50
From the text: as §4, §6

[21] = test system: Cf1 male mice; test: Writhing reflex, 0.6% acetic acid; assay type: in vivo; settings: Mus musculus, ip, Table IV
[22] = test system: human osteosarcoma cells; test: Cytotoxicity against growth of human osteosarcoma cells; assay type: cell-based; settings: Table XX; human osteosarcoma (ATCC); read-out: Cytoxicity ED-50 Osteosarcoma
[23] = test system: human osteoporosis fibroblastic cells; test: Cytotoxicity against growth of human osteoporosis fibroblastic cells; assay type: cell-based; settings: Fibroblast, Table XX, read-out: Cytoxicity ED-50 Osteoporosis Fibroblasts
[24] = test system: urinary excretion of calcium, magnesium, phosphorus; settings: in the diet at 3 mg/day; cited from earlier work
[25] = test system: testes; settings: 250 mg/kg for 16 days; cited from earlier work
[26] = Table VII, mouse macrophage cultured cells

T2 sequence (P18242 65-410): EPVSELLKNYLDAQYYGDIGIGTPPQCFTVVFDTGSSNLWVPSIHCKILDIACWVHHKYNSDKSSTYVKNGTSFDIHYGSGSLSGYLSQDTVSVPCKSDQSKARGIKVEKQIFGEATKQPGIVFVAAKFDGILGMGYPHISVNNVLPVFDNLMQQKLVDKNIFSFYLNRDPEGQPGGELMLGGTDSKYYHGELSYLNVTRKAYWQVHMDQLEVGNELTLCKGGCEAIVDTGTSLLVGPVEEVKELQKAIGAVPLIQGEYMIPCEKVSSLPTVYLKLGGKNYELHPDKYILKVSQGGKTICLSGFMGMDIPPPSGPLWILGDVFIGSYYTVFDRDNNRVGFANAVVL
T1 sequence (P00772 27-266): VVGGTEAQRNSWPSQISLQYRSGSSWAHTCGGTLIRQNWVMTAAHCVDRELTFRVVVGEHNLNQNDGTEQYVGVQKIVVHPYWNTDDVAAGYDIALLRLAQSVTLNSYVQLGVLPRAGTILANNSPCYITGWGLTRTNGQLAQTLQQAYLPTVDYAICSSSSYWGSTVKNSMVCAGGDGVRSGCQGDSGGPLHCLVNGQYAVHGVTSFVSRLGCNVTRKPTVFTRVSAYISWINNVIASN
T4 sequence (A0A287ANF9 25-600): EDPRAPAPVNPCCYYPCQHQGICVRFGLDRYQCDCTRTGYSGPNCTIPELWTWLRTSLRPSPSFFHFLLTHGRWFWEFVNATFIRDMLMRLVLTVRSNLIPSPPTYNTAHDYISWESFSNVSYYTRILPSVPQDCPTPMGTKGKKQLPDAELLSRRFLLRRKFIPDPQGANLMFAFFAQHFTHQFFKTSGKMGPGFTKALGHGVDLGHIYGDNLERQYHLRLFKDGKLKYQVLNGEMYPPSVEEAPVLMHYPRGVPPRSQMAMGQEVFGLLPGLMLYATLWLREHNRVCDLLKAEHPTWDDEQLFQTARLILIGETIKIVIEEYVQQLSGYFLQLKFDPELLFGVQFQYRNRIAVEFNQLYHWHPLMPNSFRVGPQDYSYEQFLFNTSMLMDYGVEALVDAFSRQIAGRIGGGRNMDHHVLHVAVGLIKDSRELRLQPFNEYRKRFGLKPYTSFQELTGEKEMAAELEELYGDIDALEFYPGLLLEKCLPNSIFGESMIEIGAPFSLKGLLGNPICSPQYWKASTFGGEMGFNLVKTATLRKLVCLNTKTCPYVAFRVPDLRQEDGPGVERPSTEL

Compound: C[NH+](C)[BH2-]C(=O)O [Compound 23, Dimethylamine-carboxyborane, sodium salt]
- Tail Flick Mice [1]: 156
- pIC50 ([2]; Table VIII, mouse macrophages): 5.57
- pIC50 ([2]; Table XVIII, mouse macrophage): 5.20
- pIC50 [3]: 4.43
- pIC50 ([4]; Table VI, mouse hepatic, read-out: Trypsin IC50): 6.08
- pIC50 ([4]; Table XVI, read-out: Mouse Hepatic Trypsin IC50): 5.00
- pIC50 ([5]; Table V): 5.10
- pIC50 ([5]; Table XV): 5.45
- pIC50 [6]: 4.59
- pIC50 ([7]; Table VII, mouse macrophage cultured cells, DMEM +10% FCS +P/S, read-out: Cathepsin D IC50): 5.19
- pIC50 ([7]; Table XVII, mouse macrophage, read-out: Cathepsin D pH 5.0 IC50): 5.64
- pIC50 [8, 26]: 5.32
- pIC50 ([8]; Table XVII, mouse macrophage): 5.85
- pIC50 [9]: 5.49
- Anti-Inflammation Cf1 Mice [10]: 68.5%
- Anti-Inflammatory Activity Sprague Dawley Rats [11]: 55 % Control
- pIC50 ([12]; Table VIII, mouse macrophages): 5.51
- pIC50 ([12]; Table XVIII, mouse macrophage): 5.66
- pIC50 [13]: 3.18
- pIC50 [14]: 3.30
- pIC50 ([15]; Table V): 5.42
- pIC50 ([15]; Table XV): 5.12
- pIC50 [16]: 5.51
- pIC50 ([17]; Table XV): 5.55
- Writhing Reflex Mice [18]: 70.4%
- pIC50 ([19]; Table XVII, mouse macrophage): 5.80
- pIC50 ([20]; Table VIII, mouse macrophages): 5.54
- pIC50 ([20]; Table XVIII, mouse macrophage): 5.68
- response vs control in vivo at 20 mg/kg [21]: 2%

Compound: C[N+](C)(C)[BH2-]C(=O)NO [Compound 14, Trimethylamine-boranecarbohydroxamic acid tetraphenylborate salt.]
- pIC50 ([2]; Table VIII, mouse macrophages): 5.83
- pIC50 ([5]; Table V): 5.37
- IC50 [22]: 1.14 µg/mL
- pIC50 [8, 26]: 5.40
- pIC50 [9]: 5.89
- Anti-Inflammatory Activity Sprague Dawley Rats [11]: 60 % Control
- pIC50 ([12]; Table VIII, mouse macrophages): 5.67
- pIC50 ([15]; Table V): 5.44
- pIC50 ([17]; Table V): 5.23
- pIC50 [19, 26]: 5.86
- IC50 [23]: 1.21 µg/mL
- pIC50 ([20]; Table VIII, mouse macrophages): 5.79
- response vs control in vivo at 8 mg/kg ([21]; 8 mg/kg I.P.): 50%

Compound: OB(O)O [boric acid]
- urinary excretion of calcium, magnesium and perhaps phosphorus [24]: blocks the urinary excretion of calcium, magnesium and perhaps phosphorus
- effect on testes [25]: severe degeneration of the testes with giant cell formation, pyknosis and exfoliation
